Source: patent US20220017468A1, “ISOQUINOLINE COMPOUNDS AND THEIR USE IN TREATING AhR IMBALANCE” (Dermavant Sciences GmbH, priority 2020, published 2022)
Values joined by “and” are separate entries in the source; they are usually repeats but may differ in a detail not shown here. Equal values may be shown once. Read-outs that look alike come from different tables or passages of the source.

How the values were obtained:
AhR = target: T1, AhR (Homo sapiens, UniProt P35869); assay: CYP1A1-bla LS-180 AhR agonist assay; assay type: cell-based
T1 construct: LS-180 cells stably transfected with a CYP1A1 promoter-linked beta-lactamase gene reporter construct; endogenous in cells; host or cells: CYP1A1-bla LS-180 cells
T1 sequence (P35869 11-848): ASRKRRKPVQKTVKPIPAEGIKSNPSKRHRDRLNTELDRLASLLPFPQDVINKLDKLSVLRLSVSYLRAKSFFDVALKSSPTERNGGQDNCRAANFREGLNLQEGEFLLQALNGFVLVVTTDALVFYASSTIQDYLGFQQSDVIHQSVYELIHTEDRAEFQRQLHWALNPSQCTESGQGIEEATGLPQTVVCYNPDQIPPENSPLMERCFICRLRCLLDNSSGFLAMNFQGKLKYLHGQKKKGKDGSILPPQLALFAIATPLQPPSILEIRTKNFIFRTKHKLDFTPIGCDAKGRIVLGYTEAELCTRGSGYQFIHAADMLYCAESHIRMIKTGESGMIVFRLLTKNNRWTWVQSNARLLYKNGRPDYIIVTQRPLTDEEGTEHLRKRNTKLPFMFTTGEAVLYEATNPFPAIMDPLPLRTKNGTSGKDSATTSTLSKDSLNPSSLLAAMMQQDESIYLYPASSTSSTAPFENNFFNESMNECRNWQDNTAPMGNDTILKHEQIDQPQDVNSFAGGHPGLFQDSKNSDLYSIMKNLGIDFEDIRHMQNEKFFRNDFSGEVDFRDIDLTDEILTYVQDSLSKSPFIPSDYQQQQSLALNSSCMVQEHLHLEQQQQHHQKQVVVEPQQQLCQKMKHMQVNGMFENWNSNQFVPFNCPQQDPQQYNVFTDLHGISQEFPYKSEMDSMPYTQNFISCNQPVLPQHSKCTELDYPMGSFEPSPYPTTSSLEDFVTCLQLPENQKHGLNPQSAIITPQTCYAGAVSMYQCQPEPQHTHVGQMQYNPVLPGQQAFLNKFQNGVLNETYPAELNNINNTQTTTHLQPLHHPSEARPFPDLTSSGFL
Experimental: LS-180 cells stably transfected with a CYP1A1 promoter-linked beta-lactamase gene reporter construct (termed CYP1A1-bla LS-180 cells) were used to characterize the ability of compounds to activate AhR. In brief, AhR activity was measured using the LiveBLAzer assay kit which utilizes a beta lactamase (bla) reporter gene downstream of CYP1A1 promoter, which metabolizes its substrate to give a fluorescent readout. For the agonist assay, CYP1A1-bla LS-180 cells were treated with increasing concentrations of compound over a 100,000-fold concentration range.
CYP1A1-bla LS-180 cells in exponential growth phase were washed twice with DPBS then seeded into 96-well microplates (50,000 cells/well) and allowed to adhere. […] The LiveBLAzer FRET B/G β-lactamase substrate was added in the final hour of incubation and resulting blue/green fluorescence was measured using a 96-well microplate reader.
AhR activity was measured as a function of beta-lactamase expression using a fluorescence resonance energy transfer-based readout. TCDD and FICZ were used as controls to validate the system.

CB2 = target: T2, CB2 (Homo sapiens, UniProt P34972); assay: fluorescence-based agonist assay using genetically modified yeast; assay type: cell-based; details: read-out: CB2 pEC50 (converted)
T2 construct: expressed in transfected cells

[1] = system: primary human cell culture platforms; assay: BioMAP Diversity Plus profiling; assay type: cell-based
[2] = system: human peripheral blood CD4+ T-cells; assay: T cell viability; assay type: cell-based; details: 120 h, Th17 polarizing conditions, 5 days
From the text: Points represent percent maximum expression of protein compared to Th17 from six combined donors; 3 biological replicates per treatment. Error bars represent standard error of mean. […] Data are mean±standard error from 3 to 9 experimental data points. […] Error bars represent mean ±standard error of 10-15 biological replicates.

[3] = oxygen radical absorbance capacity (ORAC) test; assay type: biochemical; details: Trolox Equivalent Values
[4] = plasma protein binding by Rapid Equilibrium Dialysis, rat; assay type: in vitro ADME; details: rat, plasma
From the text: (§1) The blood-to-plasma ratios were similar across species (1.22-1.36, Table 9).

Rat Plasma Proteins = assay: as above; assay type: in vitro ADME
From the text: as §1

[5] = blood-to-plasma ratio and blood cell association, minipig; assay type: in vitro ADME
[6] = blood-to-plasma ratio and blood cell association, human; assay type: in vitro ADME
[7] = metabolic stability in liver microsomes, dog; assay type: in vitro ADME
[8] = metabolic stability in hepatocytes, minipig; assay type: in vitro ADME
[9] = metabolic stability in hepatocytes, human; assay type: in vitro ADME
[10] = pharmacokinetics after a single intravenous dose, rat; assay type: in vivo; details: plasma, 1 mg/kg intravenous
From the text: (§2) Bioavailability was 46.5% and 41.0% for 30% Captisol and 30% Cavitron, respectively. 30% Captisol formulation was selected for the 7-day subcutaneous toxicity study in rat.

[11] = pharmacokinetics after a single intravenous dose, minipig; assay type: in vivo; details: plasma, 1 mg/kg intravenous, mean
From the text: as §2

[12] = bioavailability after a single oral dose, minipig; assay type: in vivo; details: plasma, single 5 mg/kg oral dose, DMSO: Kolliphore HS15: hydroxypropyl-β-cyclodextrin (10:10:80)
From the text: as §2

[13] = read-out: Blood-to-plasma Ratio Mean (% CV)
[14] = read-out: Blood-to-plasma Ratio Replicate

T2 sequence (P34972 whole entry, species assumed): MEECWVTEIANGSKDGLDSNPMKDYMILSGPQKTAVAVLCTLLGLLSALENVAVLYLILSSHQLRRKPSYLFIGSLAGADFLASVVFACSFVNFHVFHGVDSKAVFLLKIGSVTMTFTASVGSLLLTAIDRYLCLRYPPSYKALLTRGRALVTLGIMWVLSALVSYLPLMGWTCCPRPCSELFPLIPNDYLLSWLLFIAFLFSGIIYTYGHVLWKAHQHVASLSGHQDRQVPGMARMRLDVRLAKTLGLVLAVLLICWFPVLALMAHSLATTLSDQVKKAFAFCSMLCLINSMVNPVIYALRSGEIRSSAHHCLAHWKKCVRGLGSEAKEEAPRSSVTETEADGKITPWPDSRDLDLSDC

CC(C)c1c(O)cc(-c2cc3ccccc3cn2)cc1O
EC50 (AhR): 15.8 nM | EC50 (CB2): 200 nM | effect on B cell proliferation ([1]; 1 μM, 330 nM, 110 nM and 37 nM): anti-proliferative to B cells | increased biomarkers ([1]; 1 μM, 330 nM, 110 nM and 37 nM): increased IL8, IL1α, sPGE2, ICAM-1, and E-selectin | reduced biomarkers (M-CSF, sIL-17A, sIL-2, sIL-6, sIL-10, Eot3, sTNFα, MCP-1, VCAM-1, MIP-1) ([1]; 1 μM, 330 nM, 110 nM and 37 nM): reductions in various cytokines/chemokines | sIL-17 in BioMAP ([1]; profiles overlaid): observed reduction in sIL-17 | IC50 [2]: 5900 nM | Hydroxyl-radical [3]: 759 TEV | Peroxyl radical-hydro [3]: 3267 TEV | Peroxyl radical-lipo [3]: 1397 TEV | Peroxynitrite [3]: 100 TEV | Singlet oxygen [3]: 2914 TEV | Total ORAC value [3]: 8437 TEV | fraction unbound at 4 h, 2 μM ([4]; read-out: % Unbound Mean (% CV)): 0.0306 | fraction unbound at 4 h, 2 μM ([4]; read-out: Mean % Bound (converted)): 0.031 | recovery at 4 h, 2 μM (Rat Plasma Proteins): 104% | % Unbound Replicate (Rat Plasma Proteins; 2 μM): 1.37% and 1.44% and 6.36% | Mean % Stability at 4 hrs (Rat Plasma Proteins; 2 μM): 94.4% | % Blood Cell Association Mean (% CV) ([5]; 1 μM): 55.6 (2.02) % | % Blood Cell Association Replicate ([5]; 1 μM): 55.3% and 56.8% and 54.5% | Blood-to-plasma Ratio Replicate ([5]; 1 μM): 1.25 and 1.19 | Mean % Blood Stability ([5]; 1 μM): 105% | blood plasma ratio at 1 μM [5, 13]: 1.22 | blood plasma ratio at 1 μM [5, 14]: 1.21 | % Blood Cell Association Mean (% CV) ([6]; 1 μM): 55.0 (2.39) % | % Blood Cell Association Replicate ([6]; 1 μM): 53.9% and 56.4% and 54.6% | Blood-to-plasma Ratio Replicate ([6]; 1 μM): 1.29 and 1.23 | Mean % Blood Stability ([6]; 1 μM): 107% | blood plasma ratio at 1 μM [6, 13]: 1.24 | blood plasma ratio at 1 μM [6, 14]: 1.21 | CLint, mic ([7]; dog liver microsomes, 0.5 μM): 1.59 mL/min/g liver | CLint scaled at 0.5 μM ([7]; dog liver microsomes, 0.5 μM, read-out: Scaled CLint, mic): 51.7 mL/min/kg | half-life at 0.5 μM ([7]; dog, microsomes): 32.1 min | in vitro-to-in vivo extrapolation (IVIVE) ratio ([8]; minipig): 0.27 | CLint, hep ([8]; minipig hepatocytes, 0.5 μM): 6.27 mL/min/g liver | half-life at 0.5 μM ([8]; minipig hepatocytes, 0.5 μM): 26.5 min | CLint scaled at 0.5 μM ([8]; minipig hepatocytes, 0.5 μM, read-out: Scaled CLint, hep): 105 mL/min/kg | half-life at 0.5 μM [9]: 10.4 min | CLint, hep ([9]; 0.5 μM): 15.7 mL/min/g liver | CLint scaled at 0.5 μM ([9]; read-out: Scaled CLint, hep): 384 mL/min/kg | AUC(0-inf) ([10]; mean n = 3): 95.7 ng·h/mL | half-life ([10]; mean n = 3): 41.4 min | clearance ([10]; mean n = 3, read-out: CLp): 175 mL/min/kg | Vd ([10]; mean n = 3, read-out: Vss): 6 L/kg | AUC(0-inf) [11]: 783 ng·h/mL | half-life [11]: 61.2 min | clearance ([11]; read-out: CLp): 21.3 mL/min/kg | Vd ([11]; read-out: Vss): 1.5 L/kg | bioavailability [12]: 0.1%
